{"source": "patent US4251546A", "about": "“Process for killing internal helminths using certain 1,1-bis-(2-substituted-3-nitrophenyl)alkane or alkylene derivatives” (ICI Australia Limited, priority 1977, dated 1981)", "key": {"live Fasciola hepatica": {"test_system": "live Fasciola hepatica", "test": "Minimum effective concentration against live Fasciola hepatica in Hedon-Fleig medium (Table 4)", "conditions": "in vitro, assessed 24 hours after treatment, read-out: MINIMUM EFFECTIVE CONCENTRATION (minimum concentration required to kill Fasciola hepatica)", "procedure": "The minimum effective concentration of compounds of formula I against live Fasciola hepatica was tested by the direct application of the test compound, in solution, to live Fasciola hepatica in Hedon-Fleig medium. The results are given in Table 4 where the minimum effective concentration (minimum concentration required to kill Fasciola hepatica) was assessed 24 hours after treatment with the test compound."}, "[1]": {"test_system": "sheep liver fluke (Fasciola hepatica)", "test": "Fluke egg count in faeces and adult fluke count in liver of infected sheep after a single s/c dose (Table 3)", "type": "in vivo", "conditions": "for POST MORTEM RESULT No. of adult fluke: liver", "procedure": "Compositions suitable for use as experimental injectable solutions were prepared by formulating the compounds as solutions of their salts either in water or in a mixture of water and ethylene glycol or water and polyethylene glycol (PEG200).\nCompositions prepared by the method of Example 10 were used as a single dose to test sheep infected with sheep liver fluke (Fasciola hepatica). The number of liver fluke eggs in the faeces was measured at the time of treatment and at selected intervals up to 30 days after treatment. The sheep were killed and the number of adult fluke in the liver counted. The amount and structure of the active ingredient in each composition and the results of treatment of a sheep with that composition are given in the Table 3 below. The compositions were administered by sub-cutaneous injection (s/c)."}}}
{"smiles": "O=[N+]([O-])c1cc(Cl)cc(C(Oc2cccc(F)c2)c2cc(Cl)cc([N+](=O)[O-])c2O)c1O", "note": "[Compound 34]", "values": [{"measurement": "minimal effective concentration", "setting": "live Fasciola hepatica", "result": 5, "unit": "µg/mL"}]}
{"smiles": "O=[N+]([O-])c1cc(Cl)cc(C(Oc2ccc(F)cc2)c2cc(Cl)cc([N+](=O)[O-])c2O)c1O", "note": "[Compound 35]", "values": [{"measurement": "minimal effective concentration", "setting": "live Fasciola hepatica", "result": 5, "unit": "µg/mL"}]}
{"smiles": "CC(OC(c1cc(Cl)cc([N+](=O)[O-])c1O)c1cc(Cl)cc([N+](=O)[O-])c1O)c1ccccc1", "note": "(stereo not drawn) [Compound 36]", "values": [{"measurement": "minimal effective concentration", "setting": "live Fasciola hepatica", "result": 1, "unit": "µg/mL"}]}
{"smiles": "O=[N+]([O-])c1cc(Cl)cc(C(OCc2cccc(F)c2)c2cc(Cl)cc([N+](=O)[O-])c2O)c1O", "note": "[Compound 37]", "values": [{"measurement": "FAECAL EGG COUNT, day 7", "setting": "[1]; single dose 6.0 mg/kg", "result": 0, "unit": "Eggs/g faeces"}, {"measurement": "FAECAL EGG COUNT, day 14", "setting": "[1]; single dose 6.0 mg/kg", "result": 0, "unit": "Eggs/g faeces"}, {"measurement": "POST MORTEM RESULT No. of adult fluke", "setting": "[1]; single dose 6.0 mg/kg", "result": 2}]}
{"smiles": "O=[N+]([O-])c1cc(Cl)cc(C(OCc2ccc(Cl)cc2)c2cc(Cl)cc([N+](=O)[O-])c2O)c1O", "note": "[Compound 38]", "values": [{"measurement": "minimal effective concentration", "setting": "live Fasciola hepatica", "result": 1, "unit": "µg/mL"}]}
{"smiles": "O=[N+]([O-])c1cccc(COC(c2cc(Cl)cc([N+](=O)[O-])c2O)c2cc(Cl)cc([N+](=O)[O-])c2O)c1", "note": "[Compound 39]", "values": [{"measurement": "minimal effective concentration", "setting": "live Fasciola hepatica", "result": 0.5, "unit": "µg/mL"}]}
{"smiles": "O=[N+]([O-])c1cc(Cl)cc(C(OCc2ccc(F)cc2)c2cc(Cl)cc([N+](=O)[O-])c2O)c1O", "note": "[Compound 40]", "values": [{"measurement": "FAECAL EGG COUNT, day 7", "setting": "[1]; single dose 2.0 mg/kg", "result": 0, "unit": "Eggs/g faeces"}, {"measurement": "FAECAL EGG COUNT, day 14", "setting": "[1]; single dose 2.0 mg/kg", "result": 130, "unit": "Eggs/g faeces"}, {"measurement": "FAECAL EGG COUNT, day 7", "setting": "[1]; single dose 6.0 mg/kg", "result": 0, "unit": "Eggs/g faeces"}, {"measurement": "FAECAL EGG COUNT, day 14", "setting": "[1]; single dose 6.0 mg/kg", "result": 0, "unit": "Eggs/g faeces"}, {"measurement": "POST MORTEM RESULT No. of adult fluke", "setting": "[1]; single dose 6.0 mg/kg", "result": 0}]}
{"smiles": "O=[N+]([O-])c1cc(Cl)cc(C(OCc2cc(Cl)cc(Cl)c2)c2cc(Cl)cc([N+](=O)[O-])c2O)c1O", "note": "[Compound 41]", "values": [{"measurement": "minimal effective concentration", "setting": "live Fasciola hepatica", "result": 10, "unit": "µg/mL"}]}
{"smiles": "O=[N+]([O-])c1cc(Cl)cc(C(OCCC(c2ccccc2)c2ccccc2)c2cc(Cl)cc([N+](=O)[O-])c2O)c1O", "note": "[Compound 42]", "values": [{"measurement": "minimal effective concentration", "setting": "live Fasciola hepatica", "result": 1, "unit": "µg/mL"}]}
{"smiles": "COc1cc(Cl)ccc1COC(c1cc(Cl)cc([N+](=O)[O-])c1O)c1cc(Cl)cc([N+](=O)[O-])c1O", "note": "[Compound 43]", "values": [{"measurement": "minimal effective concentration", "setting": "live Fasciola hepatica", "result": 5, "unit": "µg/mL"}]}
{"smiles": "CC(=O)Nc1ccc(OC(c2cc(Cl)cc([N+](=O)[O-])c2O)c2cc(Cl)cc([N+](=O)[O-])c2O)cc1", "note": "[Compound 44]", "values": [{"measurement": "minimal effective concentration", "setting": "live Fasciola hepatica", "result": 5, "unit": "µg/mL"}]}
{"smiles": "CCCSC(c1cc(Cl)cc([N+](=O)[O-])c1O)c1cc(Cl)cc([N+](=O)[O-])c1O", "note": "[Compound 45]", "values": [{"measurement": "FAECAL EGG COUNT, day 7", "setting": "[1]; single dose 12.0 mg/kg", "result": 10, "unit": "Eggs/g faeces"}, {"measurement": "FAECAL EGG COUNT, day 14", "setting": "[1]; single dose 12.0 mg/kg", "result": 0, "unit": "Eggs/g faeces"}, {"measurement": "POST MORTEM RESULT No. of adult fluke", "setting": "[1]; single dose 12.0 mg/kg", "result": 1}]}
{"smiles": "CC(C)(C)SC(c1cc(Cl)cc([N+](=O)[O-])c1O)c1cc(Cl)cc([N+](=O)[O-])c1O", "note": "[Compound 46]", "values": [{"measurement": "minimal effective concentration", "setting": "live Fasciola hepatica", "result": 0.5, "unit": "µg/mL"}]}
{"smiles": "CCC(C)SC(c1cc(Cl)cc([N+](=O)[O-])c1O)c1cc(Cl)cc([N+](=O)[O-])c1O", "note": "(stereo not drawn) [Compound 47]", "values": [{"measurement": "FAECAL EGG COUNT, day 7", "setting": "[1]; single dose 12.0 mg/kg", "result": 10, "unit": "Eggs/g faeces"}, {"measurement": "FAECAL EGG COUNT, day 14", "setting": "[1]; single dose 12.0 mg/kg", "result": 30, "unit": "Eggs/g faeces"}]}
{"smiles": "COc1ccc(CSC(c2cc(Cl)cc([N+](=O)[O-])c2O)c2cc(Cl)cc([N+](=O)[O-])c2O)cc1", "note": "[Compound 48]", "values": [{"measurement": "minimal effective concentration", "setting": "live Fasciola hepatica", "result": 1, "unit": "µg/mL"}]}
{"smiles": "O=[N+]([O-])c1cc(Cl)cc(C(Sc2ccccc2)c2cc(Cl)cc([N+](=O)[O-])c2O)c1O", "note": "[Compound 50]", "values": [{"measurement": "FAECAL EGG COUNT, day 7", "setting": "[1]; single dose 12.0 mg/kg", "result": 100, "unit": "Eggs/g faeces"}, {"measurement": "FAECAL EGG COUNT, day 14", "setting": "[1]; single dose 12.0 mg/kg", "result": 0, "unit": "Eggs/g faeces"}, {"measurement": "POST MORTEM RESULT No. of adult fluke", "setting": "[1]; single dose 12.0 mg/kg", "result": 0}]}
{"smiles": "O=[N+]([O-])c1cc(Cl)cc(C(Sc2ccc(Cl)cc2)c2cc(Cl)cc([N+](=O)[O-])c2O)c1O", "note": "[Compound 51]", "values": [{"measurement": "FAECAL EGG COUNT, day 7", "setting": "[1]; single dose 12.0 mg/kg", "result": 10, "unit": "Eggs/g faeces"}, {"measurement": "FAECAL EGG COUNT, day 14", "setting": "[1]; single dose 12.0 mg/kg", "result": 0, "unit": "Eggs/g faeces"}, {"measurement": "POST MORTEM RESULT No. of adult fluke", "setting": "[1]; single dose 12.0 mg/kg", "result": 0}]}
{"smiles": "O=[N+]([O-])c1cc(Cl)cc(C(c2cc(Cl)cc([N+](=O)[O-])c2O)C(F)(F)C(F)(F)C(F)(F)F)c1O", "note": "[Compound 55]", "values": [{"measurement": "FAECAL EGG COUNT, day 7", "setting": "[1]; single dose 2.0 mg/kg", "result": 20, "unit": "Eggs/g faeces"}, {"measurement": "FAECAL EGG COUNT, day 14", "setting": "[1]; single dose 2.0 mg/kg", "result": 0, "unit": "Eggs/g faeces"}, {"measurement": "POST MORTEM RESULT No. of adult fluke", "setting": "[1]; single dose 2.0 mg/kg", "result": 1}, {"measurement": "FAECAL EGG COUNT, day 7", "setting": "[1]; single dose 6.0 mg/kg", "result": 50, "unit": "Eggs/g faeces"}, {"measurement": "FAECAL EGG COUNT, day 14", "setting": "[1]; single dose 6.0 mg/kg", "result": 20, "unit": "Eggs/g faeces"}, {"measurement": "POST MORTEM RESULT No. of adult fluke", "setting": "[1]; single dose 6.0 mg/kg", "result": 0}]}
